Data published in US20160278375A1, “BISCATIONIC AND TRISCATIONIC AMPHIPHILES AS ANTIMICROBIAL AGENTS” (Temple University of the Commonwealth System of Higher …, priority 2013, published 2016).
Read-outs that look alike come from different tables or passages of the source.

Key:
[1] = water solubility; type: physicochemical
[2] = system: S. aureus; settings: pH 7.4; cited from earlier work
[3] = system: B. subtilis; settings: pH 7.4; cited from earlier work
[4] = system: Staphylococcus aureus (SH1000); assay: MIC determination by two-fold serial dilution in 96-well microtiter plates; type: cell-based; settings: Table 1; 37° C., 72 hours; read-out: MIC, Gram positive S. aureus
Description: (§1) For the compounds above, respective minimum inhibitory concentration (MIC) values against the Gram-positive S. aureus, E. faecalis, Gram-negative E. coli and P. aeruginosa were determined, respectively, by standard methods. […] Cell viability was verified by serial dilution and plating on MH agar. Both aqueous and fresh media positive controls were performed for each trial. Overnight bacterial cultures of Staphylococcus aureus (SH1000), Enterococcus faecalis (OG1RF), Escherichia coli (MC4100), and Pseudomonas aeruginosa (PAO1-WT) were grown in Mueller-Hinton broth at 37° C., with all but E. faecalis under shaking Overnight cultures were diluted to approximately 10^6 cfu/mL as determined by OD measurement at 640 nm and plating on MH agar.
(§2) Each compound was serially diluted two-fold with water from 1 mM down to 1 μM yielding twelve dilutions per compound. In triplicate, 100 µL of each dilution were pipetted into the appropriate well of a 96-well microtiter plate, and then […] of overnight bacterial culture diluted to ca. 10^6 cfu/mL were inoculated into each well. Microtiter plates were incubated at 37° C. for 72 hours. Up to seven compounds were tested against one bacterial species at twelve decreasing concentrations per 96-well plate.

[5] = system: Pseudomonas aeruginosa (PAO1-WT); assay: as above; type: cell-based; settings: Table 1, 37° C., 72 hours, read-out: MIC, Gram negative P. aeruginosa
Description: as §1, §2

[6] = system: Escherichia coli (MC4100); assay: as above; type: cell-based; settings: Table 1; 37° C., 72 hours; read-out: MIC, Gram negative E. coli
Description: as §1, §2

[7] = system: Enterococcus faecalis (OG1RF); assay: as above; type: cell-based; settings: Table 1; 37° C., 72 hours; read-out: MIC, Gram positive E. faecalis
Description: as §1, §2

[8] = system: S. aureus, E. faecalis, E. coli and P. aeruginosa; assay: MIC determination, statements across the bacteria tested; type: cell-based
Description: as §1, §2

[9] = system: pre-established Staph aureus biofilms; assay: visual disruption of pre-established biofilms; type: cell-based; settings: disperses biofilms
Description: Compound (12,2,0,2,12) causes a visual disruption of pre-established Staph aureus biofilms at 25 μM (micromolar). Thus it at least disperses biofilms at 25 μM.

CCCCCCCCCCCCCCCCCC[N+](C)(C)CC[N+](C)(C)CCCCCCCC [Compound (18, 2, 8)]
water solubility [1]: fully water soluble

CCCCCCCCCCCCCCCCCCCC[N+](C)(C)CC[N+](C)(C)CCCCCCCC [Compound (20, 2, 8)]
water solubility [1]: fully water soluble

N=C(N=C(N)N)Nc1cccc(NC(=N)N=C(N)N)c1 [Compound 11a]
MBIC S. aureus [2]: 300 µM
MBIC B. subtilis [3]: 30 µM

N-alkyl-N-benzyl-N,N-dimethylammonium chloride [benzalkonium chloride, reference compound]
MIC [4]: 8 µM
MIC [5]: 63 µM
MIC [6]: 32 µM
MIC [7]: 8 µM
fold less activity ([8]; compared with compound (12,2,10)): 4-32 fold

N=C(N=C(N)N)Nc1cccc(NC(=N)N=C(N)N)c1 [Compound 11b]
MBIC S. aureus [2]: 750 ± 250 µM
MBIC B. subtilis [3]: 7 ± 3 µM

CCCCCCCCCCCC[N+](C)(C)CCN(C)CC[N+](C)(C)CCCCCCCCCCCC.[Br-].[Br-] [Compound 12, 2, 0, 2, 12]
MIC ([8]; S. aureus, E. faecalis, E. coli, P. aeruginosa, read-out: MIC values against all four bacterial species tested): ≤ 4 µM
concentration causing visual disruption of pre-established biofilms [9]: 25 µM

CCCCCCCCCCCCCCCCCC[N+](C)(C)CCN(C)C.[Br-] [Compound (18, 2, 0)]
MIC ([5]; Pseudomonas aeruginosa, PAO1): 63 µM
MIC [6]: 63 µM
MIC ([8]; S. aureus and E. faecalis, read-out: MIC values versus Gram positive bacteria): 2 to 4 µM
